According to publication PMC4536998 (Oncotarget, 2015):
pKd: −log10 of the molar value.

Target: T1, embryonic ectoderm development (EED) (Homo sapiens, UniProt O75530)
T1 construct: recombinant EED
Assay: SPR (Biacore […], EED immobilized on CM5 chip, […] Langmuir fit); supported by competitive co-IP against EZH2
Assay type: binding

T1 sequence (O75530 2-441): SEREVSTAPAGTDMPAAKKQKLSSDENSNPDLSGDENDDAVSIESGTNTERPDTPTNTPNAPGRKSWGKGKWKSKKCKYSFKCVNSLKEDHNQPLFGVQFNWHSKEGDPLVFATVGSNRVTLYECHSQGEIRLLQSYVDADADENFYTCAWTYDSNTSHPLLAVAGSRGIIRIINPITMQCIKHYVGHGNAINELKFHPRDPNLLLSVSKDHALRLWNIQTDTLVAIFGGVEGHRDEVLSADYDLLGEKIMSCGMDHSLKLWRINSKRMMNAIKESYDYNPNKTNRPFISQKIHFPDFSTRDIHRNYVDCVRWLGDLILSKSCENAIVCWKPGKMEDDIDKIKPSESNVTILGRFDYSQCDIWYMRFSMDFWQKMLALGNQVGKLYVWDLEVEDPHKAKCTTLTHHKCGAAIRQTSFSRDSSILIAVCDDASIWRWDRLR

O=C(O[C@@H]1Cc2c(O)cc(O)cc2O[C@@H]1c1cc(O)c(O)c(O)c1)c1cc(O)c(O)c(O)c1 [1E7, EGCG]
pKd: 4.82
